Source: publication PMC5127132 (2016)

How the values were obtained:
[1] = tested on: H8 (5'-FAM) (DNA, aptamer) GGGAGGACGAAGCGGAACTGGGTGTGGGGTGATCAAGGGAGTAGACTACAGAAGACACGCCCGACA; assay: microscale thermophoresis; conditions: 137 mM NaCl, 2.7 mM KCl, 1 mM MgCl2; 10 mM Na2HPO4, 2 mM KH2PO4, pH 7.4, 25 °C
[2] = tested on: 1.12.2 (DNA, aptamer) GATCGGGTGTGGGTGGCGTAAAGGGAGCATCGGACA; assay: gold nanoparticle aggregation; conditions: 0.5 M NaCl added last; in water; OTA 0.2 to 70 nM
[3] = tested on: 1.12.2 (5'-FAM) (DNA, aptamer) GATCGGGTGTGGGTGGCGTAAAGGGAGCATCGGACA; assay: microscale thermophoresis (raw fluorescence, quenching); conditions: 120 mM NaCl, 5 mM KCl, 10 mM CaCl2; 10 mM HEPES, pH 7.0, 25 °C; raw fluorescence quenching analysed, may have skewed KD
[4] = tested on: A08min (5'-FAM) (DNA, aptamer) GGCAGTGTGGGCGAATCTATGCGTACCGTTCGATATCGTG; assay: microscale thermophoresis; conditions: 137 mM NaCl, 2.7 mM KCl; 10 mM Na2HPO4, 2 mM KH2PO4, pH 7.4, 25 °C
[5] = tested on: 1.12.2 (DNA, aptamer) GATCGGGTGTGGGTGGCGTAAAGGGAGCATCGGACA; assay: SYBR Green I displacement; conditions: 120 mM NaCl, 5 mM KCl, 10 mM CaCl2; 10 mM HEPES, pH 7.0; OTA 0.2 to 70 nM
[6] = tested on: H12 (5'-FAM) (DNA, aptamer) GGGAGGACGAAGCGGAACCGGGTGTGGGTGCCTTGATCCAGGGAGTCTCAGAAGACACGCCCGACA; assay: microscale thermophoresis; conditions: 137 mM NaCl, 2.7 mM KCl, 1 mM MgCl2; 10 mM Na2HPO4, 2 mM KH2PO4, pH 7.4, 25 °C
[7] = tested on: A08min (DNA, aptamer) GGCAGTGTGGGCGAATCTATGCGTACCGTTCGATATCGTG; assay: gold nanoparticle aggregation; conditions: 0.5 M NaCl added last; in water; OTA 0.2 to 70 nM
[8] = tested on: A08 (DNA, aptamer) AGCCTCGTCTGTTCTCCCGGCAGTGTGGGCGAATCTATGCGTACCGTTCGATATCGTGGGGAAGACAAGCAGACGT; assay: gold nanoparticle aggregation; conditions: 0.5 M NaCl added last; in water; OTA 0.2 to 70 nM
[9] = tested on: A08 (5'-FAM) (DNA, aptamer) AGCCTCGTCTGTTCTCCCGGCAGTGTGGGCGAATCTATGCGTACCGTTCGATATCGTGGGGAAGACAAGCAGACGT; assay: microscale thermophoresis; conditions: 137 mM NaCl, 2.7 mM KCl; 10 mM Na2HPO4, 2 mM KH2PO4, pH 7.4, 25 °C
[10] = tested on: A08min (DNA, aptamer) GGCAGTGTGGGCGAATCTATGCGTACCGTTCGATATCGTG; assay: SYBR Green I displacement; conditions: 137 mM NaCl, 2.7 mM KCl; 10 mM Na2HPO4, 2 mM KH2PO4, pH 7.4; OTA 0.2 to 70 nM
[11] = tested on: A08 (DNA, aptamer) AGCCTCGTCTGTTCTCCCGGCAGTGTGGGCGAATCTATGCGTACCGTTCGATATCGTGGGGAAGACAAGCAGACGT; assay: SYBR Green I displacement; conditions: 137 mM NaCl, 2.7 mM KCl; 10 mM Na2HPO4, 2 mM KH2PO4, pH 7.4; OTA 0.2 to 70 nM

With `C[C@@H]1Cc2c(Cl)cc(C(=O)N[C@@H](Cc3ccccc3)C(=O)O)c(O)c2C(=O)O1` the KD [1] was 416.1 ± 119.0 nM, the binding [2] was “yes” and the KD [3] was 524.8 ± 147.8 nM. The KD [4] was 96.5 ± 33.3 nM, the binding [5] was “yes” and the KD [6] was 629.5 ± 79.7 nM. For the same compound, the binding [7] was “yes”, the binding [8] was “yes” and the KD [9] was 232.6 ± 80.6 nM. For the same compound, the binding [10] was “yes” and the binding [11] was “yes”.
